Laboratory results published in patent publication US20250162989A1, “USP30 INHIBITORS AND USES THEREOF” (Vincere Biosciences, Inc., priority 2021, published 2025).

Legend:
[1] = target: USP30 (Homo sapiens (Human), UniProt Q70CQ3); experiment: Dundee MALDI-TOF mass spectrometry assay (K48-linked diubiquitin cleavage); type: biochemical; conditions: USP30 25 ng/μl, K48-linked diubiquitin 5.6 μM, read-out: USP30 IC50 μM (avg)
Description: USP30 was diluted in a buffer containing 40 mM Tris, 0.01% BSA, 1 mM DTT and K48 in 40 mM Tris, 0.01% BSA.
The compounds were pre-incubated with the USP30 for 5 mins at room temp before the K48 dimer addition. The assay mixture was then incubated for 45 mins at room temp. The assay was stopped by the addition of TFA to a final concentration of 2% (v/v).
Acidified samples of the DUB assays were mixed with 0.5 mM 15N-ubiquitin and then with one part of 2% (v/v) TFA and one part of 2.5 DHAP matrix solution (7.6 mg of 2.5 DHAP in […] ethanol and […] of an aqueous 12 mg ml 1 diammonium hydrogen citrate).

[2] = target: recombinant USP30 (amino acids 57-517 of the human sequence) (Homo sapiens (Human), UniProt Q70CQ3); experiment: In vitro USP30 biochemical assay (Ubiquitin-Rhodamine substrate); conditions: fluorescence
Description: In vitro biochemical assay to establish the potency of compounds for USP30 inhibition: a 384-well plate assay using a fluorophore tagged substrate of USP30 was used for in vitro screening of compounds. Each compound was tested at
10 different concentrations (0.5 to 10,000 nM) in duplicate wells. […] Data were analyzed using Graph Pad Prism software with a four-parameter (floating slope) fit to log concentration data to determine IC50s.

[3] = 1.5 nM recombinant USP30, 25 nM Ubiquitin-Rhodamine
[4] = […] recombinant USP30, 25 nM Ubiquitin-Rhodamine

recombinant USP30 (amino acids 57-517 of the human sequence), sequence (Q70CQ3 57-517): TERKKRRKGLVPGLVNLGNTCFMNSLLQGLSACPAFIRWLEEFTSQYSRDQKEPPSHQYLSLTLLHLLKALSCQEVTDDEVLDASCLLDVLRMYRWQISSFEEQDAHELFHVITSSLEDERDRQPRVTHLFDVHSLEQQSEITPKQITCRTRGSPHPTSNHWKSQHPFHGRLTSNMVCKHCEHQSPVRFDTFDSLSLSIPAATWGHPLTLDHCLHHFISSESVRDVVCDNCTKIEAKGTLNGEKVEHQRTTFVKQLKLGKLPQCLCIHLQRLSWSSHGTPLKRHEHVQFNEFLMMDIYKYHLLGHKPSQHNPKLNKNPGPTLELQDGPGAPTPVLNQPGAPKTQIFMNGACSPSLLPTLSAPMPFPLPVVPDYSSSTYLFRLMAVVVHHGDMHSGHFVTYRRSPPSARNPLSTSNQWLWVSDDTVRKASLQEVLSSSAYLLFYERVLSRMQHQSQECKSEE
USP30, sequence (Q70CQ3 whole entry): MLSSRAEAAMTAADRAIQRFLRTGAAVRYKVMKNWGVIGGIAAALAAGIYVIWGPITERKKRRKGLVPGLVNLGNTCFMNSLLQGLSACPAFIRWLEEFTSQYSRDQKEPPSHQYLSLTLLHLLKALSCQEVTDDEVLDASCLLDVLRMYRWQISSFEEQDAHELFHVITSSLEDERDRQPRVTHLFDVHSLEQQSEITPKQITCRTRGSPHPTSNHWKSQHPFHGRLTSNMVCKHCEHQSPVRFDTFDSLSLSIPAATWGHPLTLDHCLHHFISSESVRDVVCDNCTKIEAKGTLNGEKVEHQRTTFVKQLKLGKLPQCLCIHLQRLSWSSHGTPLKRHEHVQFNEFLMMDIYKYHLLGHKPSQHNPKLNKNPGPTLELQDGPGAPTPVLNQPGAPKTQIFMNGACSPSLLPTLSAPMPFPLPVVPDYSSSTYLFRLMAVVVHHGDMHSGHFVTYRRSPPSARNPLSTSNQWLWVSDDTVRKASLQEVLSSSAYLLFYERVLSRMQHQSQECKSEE

| SMILES | IC50 [1] | IC50 [2, 3] | IC50 [2, 4] |
| --- | --- | --- | --- |
| COc1cc(NC(=O)[C@H](CC2CCN(C)CC2)NC(=O)c2ccc(F)cc2)ccc1S(=O)(=O)NC1CCOCC1 [Compound I-143] | 0.05 to 1 µM | 0.05 to 1 µM | – |
| CC(C)(C)NS(=O)(=O)c1ccc(NC(=O)C(CC2CCN(C=O)CC2)NC(=O)c2ccc(F)cc2)cc1 (centres unmarked) [Compound I-145] | < 0.05 µM | – | < 0.05 µM |
| COc1cc(NC(=O)[C@H](CC2CCNCC2)NC(=O)c2ccc(F)cc2)ccc1S(=O)(=O)NC(C)(C)C [Compound I-155] | < 0.05 µM | 0.05 to 1 µM | – |
| CC(=O)N1CCC(C[C@H](NC(=O)c2ccc(F)cc2)C(=O)Nc2ccc(S(=O)(=O)NC(C)(C)C)nc2)CC1 [Compound I-156] | < 0.05 µM | – | < 0.05 µM |
| O=C(N[C@@H](CC1CCNCC1)C(=O)Nc1ccc(S(=O)(=O)NC2CCOCC2)cc1)c1ccc(F)cc1 [Compound I-157] | 0.05 to 1 µM | 0.05 to 1 µM | – |
| CN1CCC(C[C@H](NC(=O)c2ccc(F)cc2)C(=O)Nc2ccc(S(=O)(=O)NC(C)(C)C(F)(F)F)cc2)CC1 [Compound I-158] | < 0.05 µM | 0.05 to 1 µM | – |
| COc1cc(NC(=O)[C@H](CC2CCNCC2)NC(=O)c2ccc(F)cc2)ccc1S(=O)(=O)NC(C)(C)CO [Compound I-159] | 0.05 to 1 µM | 0.05 to 1 µM | – |
| COc1cc(NC(=O)[C@H](CC2CCN(C(C)=O)CC2)NC(=O)c2ccc(F)cc2)ccc1S(=O)(=O)NC(C)(C)C [Compound I-160] | < 0.05 µM | – | < 0.05 µM |
| CC(C)C(=O)N1CCC(C[C@H](NC(=O)c2ccc(F)cc2)C(=O)Nc2ccc(S(=O)(=O)NC(C)(C)C)cc2)CC1 [Compound I-161] | < 0.05 µM | – | < 0.05 µM |
| CN1CCC(C[C@H](NC(=O)c2ccc(F)cc2)C(=O)Nc2ccc(S(=O)(=O)NC3CCOCC3)cc2)CC1 [Compound I-164] | < 0.05 µM | 0.05 to 1 µM | – |
| CC(C)(C)NS(=O)(=O)c1ccc(NC(=O)[C@H](CC2CCN(C#N)CC2)NC(=O)c2ccc(F)cc2)cc1 [Compound I-165] | < 0.05 µM | – | < 0.05 µM |
| CC(C)(C)NS(=O)(=O)c1ccc(NC(=O)[C@H](Cc2ccccc2)NC(=O)c2ccon2)cc1 [Compound I-167] | 0.05 to 1 µM | 0.05 to 1 µM | – |
| CC(C)(C)NS(=O)(=O)c1ccc(NC(=O)[C@H](Cc2ccccc2)NC(=O)c2nccs2)cc1 [Compound I-168] | < 0.05 µM | 0.05 to 1 µM | – |
| CNCCN1CCC(C[C@H](NC(=O)c2ccc(F)cc2)C(=O)Nc2ccc(S(=O)(=O)NC(C)(C)C)cc2)CC1 [Compound I-171] | < 0.05 µM | – | < 0.05 µM |

Second part, the compound after the results:

| IC50 [1] | IC50 [2, 3] | IC50 [2, 4] | SMILES |
| --- | --- | --- | --- |
| < 0.05 µM | 0.05 to 1 µM | – | COc1cc(NC(=O)[C@H](Cc2ccccc2)NC(=O)c2ccc(F)cc2)ccc1S(=O)(=O)N[C@H](C)CO [Compound I-137] |
| < 0.05 µM | 0.05 to 1 µM | – | COc1cc(NC(=O)[C@H](Cc2ccccc2)NC(=O)c2ccc(F)cc2)ccc1S(=O)(=O)NC(C)(CO)CO [Compound I-138] |
| < 0.05 µM | 0.05 to 1 µM | – | COc1cc(NC(=O)[C@H](Cc2ccccc2)NC(=O)c2ccc(F)cc2)ccc1S(=O)(=O)NC1(CO)CC1 [Compound I-141] |
| 0.05 to 1 µM | 0.05 to 1 µM | – | CC(CO)(CO)NS(=O)(=O)c1ccc(NC(=O)[C@H](Cc2ccccc2)NC(=O)c2ccc(F)cc2)cn1 [Compound I-148] |
| < 0.05 µM | 0.05 to 1 µM | – | C[C@@H](CO)NS(=O)(=O)c1ccc(NC(=O)[C@H](Cc2ccccc2)NC(=O)c2ccc(F)cc2)cn1 [Compound I-149] |
| < 0.05 µM | 0.05 to 1 µM | – | O=C(N[C@@H](Cc1ccccc1)C(=O)Nc1ccc(S(=O)(=O)NC2(CO)CC2)nc1)c1ccc(F)cc1 [Compound I-150] |
| < 0.05 µM | 0.05 to 1 µM | – | C[C@H](CO)NS(=O)(=O)c1ccc(NC(=O)[C@H](Cc2ccccc2)NC(=O)c2ccc(F)cc2)cn1 [Compound I-151] |
| < 0.05 µM | – | < 0.05 µM | CC(C)(C)NS(=O)(=O)c1ccc(NC(=O)[C@H](Cc2ccccc2)NC(=O)c2ccc(F)nc2)cc1 [Compound I-163] |
